Data: US20100317001A1, “METHOD OF USING TUMOUR RNA INTEGRITY TO MEASURE RESPONSE TO CHEMOTHERAPY IN CANCER PATIENTS” (LAURENTIAN UNIVERSITY, priority 2007, published 2010)

Assays:
breast cancer = conditions: after anthracycline-based chemotherapy; cited from earlier work
[1] = dose level 6, epirubicin plus docetaxel every 3 weeks (Schedule A) with pegfilgrastim support
Method: Patients were from a national clinical trial hosted by the National Cancer Institute of Canada Clinical Trials Group (referred to as group “MA.22”) and were treated with increasing dose levels of both epirubicin and docetaxel, with pegfilgrastim support to reduce neutropenia associated with this therapy.

SMILES | breast cancer patients that respond (breast cancer) | maximum tolerated dose [1]
CC(=O)O[C@@]12CO[C@@H]1C[C@H](O)[C@@]1(C)C(=O)[C@H](O)C3=C(C)[C@@H](OC(=O)[C@H](O)[C@@H](NC(=O)OC(C)(C)C)c4ccccc4)C[C@@](O)([C@@H](OC(=O)c4ccccc4)[C@H]21)C3(C)C [docetaxel] | 35.4% | 75 mg/m^2
COc1cccc2c1C(=O)c1c(O)c3c(c(O)c1C2=O)C[C@@](O)(C(=O)CO)C[C@@H]3O[C@H]1C[C@H](N)[C@@H](O)[C@H](C)O1 [epirubicin] | – | 105 mg/m^2
CC(=O)O[C@H]1C(=O)[C@@]2(C)[C@H]([C@H](OC(=O)c3ccccc3)[C@]3(O)C[C@H](OC(=O)[C@H](O)[C@@H](NC(=O)c4ccccc4)c4ccccc4)C(C)=C1C3(C)C)[C@]1(OC(C)=O)CO[C@@H]1C[C@@H]2O [paclitaxel] | 33% | –
